The results in this text go back to US12460263B2, “Genetic variants for diagnosis of Alzheimer's disease” (The Hong Kong University of Science and Technology, priority 2019, dated 2025).

The structures appear in SMILES notation. “Also recorded” adds a separate entry of the source.

For one assay, the system named is plasma sST2 protein. Description: Association analysis of plasma sST2 protein level (ELISA) and medication in Hong Kong female AD patients. It is filed as in vivo, human. The conditions noted are these: female AD patients taking trazodone (n=15) vs not taking (n=149), Hong Kong Chinese AD cohort, linear regression adjusted for age and population structure, ***P<0.001. The source says:
Subject Recruitment for the Hong Kong Chinese AD Cohort: A cohort of Hong Kong Chinese was recruited from individuals who visited the Specialist Outpatient Department of the Prince of Wales Hospital, the Chinese University of Hong Kong. A total of 427 subjects were recruited: 233 with AD and 194 normal controls (NCs). All subjects were ≥60 years old. The clinical diagnosis of AD was established based on the American Psychiatric Association's Diagnostic and Statistical Manual of Mental Disorders, Fifth Edition (DSM-5). All subjects were given medical history assessment, cognitive and functional assessment through the Montreal Cognitive Assessment (MoCA) test, and neuroimaging assessment by MRI. Each individual's data, including age, sex, education, medical history, and cardiovascular disease history, were recorded. Individuals with any significant neurological disease or psychiatric disorder were excluded. The plasma of subjects was collected and stored at −80° C. as aliquots until use. […] Absolute blood cell count was determined by complete blood count (CBC) at the Prince of Wales Hospital. […]
Detection of Soluble ST2 Protein by ELISA: Human plasma and CSF soluble ST2 (sST2) protein levels were measured using the Human ST2/IL-33 R Quantikine ELISA Kit (DST200). […]
For orientation: An ELISA detects its analyte on a solid surface through an enzyme-linked reagent.

A short description of assay [1]: Association analysis of cognitive performance (MoCA score) and medication history in female AD patients. The class given is in vivo, human. The settings on record: association with medication history, P=0.0202. The source says: Subject Recruitment for the Hong Kong Chinese AD Cohort: A cohort of Hong Kong Chinese was recruited from individuals who visited the Specialist Outpatient Department of the Prince of Wales Hospital, the Chinese University of Hong Kong. A total of 427 subjects were recruited: 233 with AD and 194 normal controls (NCs). All subjects were ≥60 years old. The clinical diagnosis of AD was established based on the American Psychiatric Association's Diagnostic and Statistical Manual of Mental Disorders, Fifth Edition (DSM-5). All subjects were given medical history assessment, cognitive and functional assessment through the Montreal Cognitive Assessment (MoCA) test, and neuroimaging assessment by MRI. Each individual's data, including age, sex, education, medical history, and cardiovascular disease history, were recorded. Individuals with any significant neurological disease or psychiatric disorder were excluded. The plasma of subjects was collected and stored at −80° C. as aliquots until use. This study was approved by the Prince of Wales Hospital, the Chinese University of Hong Kong, and the Hong Kong University of Science and Technology. All participants provided written informed consent for both study enrollment and sample collection. Absolute blood cell count was determined by complete blood count (CBC) at the Prince of Wales Hospital. […]

For a further assay, the system named is serum sST2. Description: Trazodone treatment of mice, serum sST2 level by ELISA. The class given is in vivo, mouse. The settings on record: 18 mo. As for the experimental part:
Trazodone treatment of mice: Mice were treated with Trazodone or vehicle control either by intraperitoneal (IP) injection or oral administration. For IP injection, mice were daily injected with 50 mg/kg Trazodone or vehicle (saline). For oral administration, mice were daily fed with 100 mg/kg Trazodone or vehicle (water). After the 2 days, 4 days, 7 days or 14 days of treatment, mouse blood was collected by intracardial bleed at time of sacrifice. The blood without anticoagulants was incubated at room temperature for 2 h and then centrifuged at 2,000×g for 20 min. The serum sST2 level was measured using the Mouse ST2/IL-33 R Quantikine ELISA Kit (MST200, R&D).

Regarding `O=c1n(CCCN2CCN(c3cccc(Cl)c3)CC2)nc2ccccn12` [Trazodone, trazodone], the “plasma sST2 level” value with plasma sST2 protein was “decreased plasma sST2 level”; in the assay with plasma sST2 protein (listed as trazodone), “effective agent to lower plasma sST2 level”. Also, the “cognitive performance (MoCA score)” value in assay [1] is reported as “altered cognitive performance”. Further, the “serum sST2 level” value is recorded as “reduction of serum sST2 level; also recorded: down-regulates the serum sST2 level” with serum sST2 (female APP/PS1 mice, daily 100 mg/kg oral for 7 or 14 days vs vehicle, n=5/group, 100 mg/kg) and “reduction of serum sST2 level; also recorded: down-regulates the serum sST2 level” in the assay with serum sST2 (female wildtype mice, daily 50 mg/kg IP or 100 mg/kg oral for 2 or 4 days vs vehicle, n=2/group).
